Laboratory results taken from patent publication US20240228504A1, “SUBSTITUTED TRICYCLIC AMIDES, ANALOGUES THEREOF, AND METHODS USING SAME” (Arbutus Biopharma Corporation, priority 2020, published 2024).

test system: HBV rcDNA in HepDE19 cells; assay: HepDE19 assay with bDNA quantitation of HBV rcDNA; format: cell-based, hepatitis B virus; conditions: HepDE19 assay, inhibition of rcDNA formation, bDNA quantitation; read-out: DE-19bDNA EC50

Structure (SMILES) | EC50
CN(C(=O)c1cc2c(C(F)F)c(F)ccc2[nH]1)C1CNCc2[nH]c(=O)c3cc(F)c(F)cc3c21 (single isomer, unassigned) [Compound 264, N-(8,9-Difluoro-6-oxo-1,2,3,4,5,6-hexahydrobenzo[c][1,7]naphthyridin-1-yl)-4-(difluoromethyl)-5-fluoro-N-methyl-1H-indole-2-carboxamide] | 8.23 µM
CN(C(=O)c1cc2c(Cl)cccc2[nH]1)C1CNCc2[nH]c(=O)c3cc(F)c(F)cc3c21 (single isomer, unassigned) [Compound 441, 4-Chloro-N-(8,9-difluoro-6-oxo-1,2,3,4,5,6-hexahydrobenzo[c][1,7]naphthyridin-1-yl)-N-methyl-1H-indole-2-carboxamide] | 0.02 µM
CN(C(=O)c1cc2c(C(F)F)cccn2c1)C1CNCc2[nH]c(=O)c3cc(F)c(F)cc3c21 (single isomer, unassigned) [Compound 431, N-(8,9-Difluoro-6-oxo-1,2,3,4,5,6-hexahydrobenzo[c][1,7]naphthyridin-1-yl)-8-(difluoromethyl)-N-methylindolizine-2-carboxamide] | 0.01 µM
CN(C(=O)c1cc2c(F)cc(F)cc2[nH]1)C1COCc2[nH]c(=O)c3cc(F)c(F)cc3c21 (single isomer, unassigned) [Compound 43, N-(8,9-Difluoro-6-oxo-1,4,5,6-tetrahydro-2H-pyrano[3,4-c]isoquinolin-1-yl)-4,6-difluoro-N-methyl-1H-indole-2-carboxamide] | 1.8 µM
CN(C(=O)c1cc2c(F)cc(F)cc2[nH]1)C1CNCc2[nH]c(=O)c3cc(F)c(F)cc3c21 (single isomer, unassigned) [Compound 117, N-(8,9-Difluoro-6-oxo-1,2,3,4,5,6-hexahydrobenzo[c][1,7]naphthyridin-1-yl)-4,6-difluoro-N-methyl-1H-indole-2-carboxamide] | 0.02 µM
CN(C(=O)c1cc2cc(F)ccc2[nH]1)C1COCc2[nH]c(=O)c3cc(F)ccc3c21 (single isomer, unassigned) [Compound 30, 5-Fluoro-N-(8-fluoro-6-oxo-1,4,5,6-tetrahydro-2H-pyrano[3,4-c]isoquinolin-1-yl)-N-methyl-1H-indole-2-carboxamide] | 0.01 µM
CN(C(=O)c1cc2ccc(F)cc2[nH]1)C1COCc2[nH]c(=O)c3cc(F)c(F)cc3c21 (single isomer, unassigned) [Compound 25, N-(8,9-Difluoro-6-oxo-1,4,5,6-tetrahydro-2H-pyrano[3,4-c]isoquinolin-1-yl)-6-fluoro-N-methyl-1H-indole-2-carboxamide] | 0.82 µM
CN(C(=O)c1cc(F)c(Cl)c(F)c1)C1COCc2[nH]c(=O)c3cc(F)ccc3c21 (single isomer, unassigned) [Compound 175, 4-Chloro-3,5-difluoro-N-(8-fluoro-6-oxo-2,4,5,6-tetrahydro-1H-pyrano[3,4-c]isoquinolin-1-yl)-N-methylbenzamide] | 0.03 µM
CN(C(=O)c1cc2ccc(F)cc2[nH]1)C1COCc2[nH]c(=O)c3cc(F)ccc3c21 (single isomer, unassigned) [Compound 32, 6-Fluoro-N-(8-fluoro-6-oxo-1,4,5,6-tetrahydro-2H-pyrano[3,4-c]isoquinolin-1-yl)-N-methyl-1H-indole-2-carboxamide] | 0.02 µM

same assay, conditions: Hepatitis B virus, HepDE19, HepDE19 assay, inhibition of rcDNA formation, bDNA quantitation; read-out: DE-19bDNA EC50

Structure (SMILES) | EC50
CN(C(=O)c1cc2cc(F)c(F)cc2[nH]1)[C@@H]1COC(=O)c2[nH]c(=O)c3cc(F)c(F)cc3c21 [Compound 321, (S)-N-(8,9-Difluoro-4,6-dioxo-1,4,5,6-tetrahydro-2H-pyrano[3,4-c]isoquinolin-1-yl)-5,6-difluoro-N-methyl-1H-indole-2-carboxamide] | 0.01 µM
CN(C(=O)c1cnc2ccccc2c1)[C@@H]1COCc2[nH]c(=O)c3cc(F)c(F)cc3c21 [Compound 71, (S)-N-(8,9-Difluoro-6-oxo-1,4,5,6-tetrahydro-2H-pyrano[3,4-c]isoquinolin-1-yl)-N-methylquinoline-3-carboxamide] | 0.33 µM
CN(C(=O)c1cc2cc(F)c(F)cc2[nH]1)[C@@H]1COCc2nc(OCCN)c3cc(F)c(F)cc3c21 [Compound 280, (S)-N-(6-(2-aminoethoxy)-8,9-difluoro-1,4-dihydro-2H-pyrano[3,4-c]isoquinolin-1-yl)-5,6-difluoro-N-methyl-1H-indole-2-carboxamide] | 0.02 µM
CN(C(=O)c1cc2cc(F)c(F)cc2n1COP(=O)(OC(C)(C)C)OC(C)(C)C)[C@@H]1COCc2[nH]c(=O)c3cc(F)c(F)cc3c21 [Compound 376, (S)-di-tert-Butyl ((2-((8,9-difluoro-6-oxo-1,4,5,6-tetrahydro-2H-pyrano[3,4-c]isoquinolin-1-yl)(methyl)carbamoyl)-5,6-difluoro-1H-indol-1-yl)methyl)phosphate] | 0.01 µM
CN(C(=O)c1cc2c(Cl)nccc2[nH]1)[C@@H]1COCc2[nH]c(=O)c3cc(F)c(F)cc3c21 [Compound 372, (S)-4-Chloro-N-(8,9-difluoro-6-oxo-1,4,5,6-tetrahydro-2H-pyrano[3,4-c]isoquinolin-1-yl)-N-methyl-1H-pyrrolo[3,2-c]pyridine-2-carboxamide] | 0.02 µM
CN(C(=O)c1cc2cccc(C(F)F)n2c1)[C@@H]1COCc2[nH]c(=O)c3cc(F)c(F)cc3c21 [Compound 266, (S)-N-(8,9-Difluoro-6-oxo-1,4,5,6-tetrahydro-2H-pyrano[3,4-c]isoquinolin-1-yl)-5-(difluoromethyl)-N-methylindolizine-2-carboxamide] | 0.02 µM
CN(C(=O)c1cc2ccnc(Cl)c2[nH]1)[C@@H]1COCc2[nH]c(=O)c3cc(F)c(F)cc3c21 [Compound 371, (S)-7-Chloro-N-(8,9-difluoro-6-oxo-1,4,5,6-tetrahydro-2H-pyrano[3,4-c]isoquinolin-1-yl)-N-methyl-1H-pyrrolo[2,3-c]pyridine-2-carboxamide] | 0.14 µM
CCC(CC)C(=O)OC1OC[C@@H](N(C)C(=O)c2cc3cc(F)c(F)cc3[nH]2)c2c1[nH]c(=O)c1cc(F)c(F)cc21 (stereo partly drawn) [Compound 331, (1S)-1-(5,6-Difluoro-N-methyl-1H-indole-2-carboxamido)-8,9-difluoro-6-oxo-1,4,5,6-tetrahydro-2H-pyrano[3,4-c]isoquinolin-4-yl 2-ethylbutanoate] | 0.01 µM
CN(C(=O)c1cc2c(C(F)F)cccn2c1)[C@@H]1COCc2[nH]c(=O)c3cc(F)c(F)cc3c21 [Compound 407, (S)-N-(8,9-difluoro-6-oxo-1,4,5,6-tetrahydro-2H-pyrano[3,4-c]isoquinolin-1-yl)-8-(difluoromethyl)-N-methylindolizine-2-carboxamide] | 0.01 µM
Cc1cc(F)cc2[nH]c(C(=O)N(C)C3COCc4[nH]c(=O)c5cc(F)ccc5c43)cc12 (racemic) [Compound 455, 6-Fluoro-N-(8-fluoro-6-oxo-1,4,5,6-tetrahydro-2H-pyrano[3,4-c]isoquinolin-1-yl)-N,4-dimethyl-1H-indole-2-carboxamide] | 0.02 µM
CN(C(=O)c1ccc2c(c1)c(Cl)nn2C)[C@@H]1COCc2[nH]c(=O)c3cc(F)c(F)cc3c21 [Compound 415, (S)-3-Chloro-N-(8,9-difluoro-6-oxo-1,4,5,6-tetrahydro-2H-pyrano[3,4-c]isoquinolin-1-yl)-N,1-dimethyl-1H-indazole-5-carboxamide] | 0.06 µM
CN(C(=O)c1cc2c(Br)cncc2[nH]1)[C@@H]1COCc2[nH]c(=O)c3cc(F)c(F)cc3c21 [Compound 312, (S)-4-Bromo-N-(8,9-difluoro-6-oxo-1,4,5,6-tetrahydro-2H-pyrano[3,4-c]isoquinolin-1-yl)-N-methyl-1H-pyrrolo[2,3-c]pyridine-2-carboxamide] | 0.03 µM
CN(C(=O)c1ccc(Cl)c(F)c1)[C@@H]1COCc2[nH]c(=O)c3cc(F)c(F)cc3c21 [Compound 75, (S)-4-Chloro-N-(8,9-difluoro-6-oxo-1,4,5,6-tetrahydro-2H-pyrano[3,4-c]isoquinolin-1-yl)-3-fluoro-N-methylbenzamide] | 0.02 µM
CN(C(=O)c1ccc(OC(F)F)c(F)c1)[C@@H]1COCc2[nH]c(=O)c3cc(F)c(F)cc3c21 [Compound 153, (S)-N-(8,9-Difluoro-6-oxo-1,4,5,6-tetrahydro-2H-pyrano[3,4-c]isoquinolin-1-yl)-4-(difluoromethoxy)-3-fluoro-N-methylbenzamide] | 0.15 µM
CN(C(=O)c1ccc2cccnc2c1)[C@@H]1COCc2[nH]c(=O)c3cc(F)c(F)cc3c21 [Compound 66, (S)-N-(8,9-Difluoro-6-oxo-1,4,5,6-tetrahydro-2H-pyrano[3,4-c]isoquinolin-1-yl)-N-methylquinoline-7-carboxamide] | 2.3 µM
CN(C(=O)c1cn2cc(Cl)ccc2n1)[C@@H]1COCc2[nH]c(=O)c3cc(F)ccc3c21 [Compound 52, (S)-6-Chloro-N-(8-fluoro-6-oxo-1,4,5,6-tetrahydro-2H-pyrano[3,4-c]isoquinolin-1-yl)-N-methylimidazo[1,2-a]pyridine-2-carboxamide] | 4.1 µM
CN(C(=O)c1ccc(F)c(Cl)c1)[C@@H]1COCc2[nH]c(=O)c3cc(F)c(F)cc3c21 [Compound 112, (S)-3-Chloro-N-(8,9-difluoro-6-oxo-1,4,5,6-tetrahydro-2H-pyrano[3,4-c]isoquinolin-1-yl)-4-fluoro-N-methylbenzamide] | 0.04 µM
CN(C(=O)c1ccc(F)c(F)c1)[C@@H]1COCc2[nH]c(=O)c3cc(F)c(F)cc3c21 [Compound 92, (S)-N-(8,9-Difluoro-6-oxo-1,4,5,6-tetrahydro-2H-pyrano[3,4-c]isoquinolin-1-yl)-3,4-difluoro-N-methylbenzamide] | 0.28 µM
CN(C(=O)c1ccc2ncoc2c1)[C@@H]1COCc2[nH]c(=O)c3cc(F)c(F)cc3c21 [Compound 409, (S)-N-(8,9-Difluoro-6-oxo-1,4,5,6-tetrahydro-2H-pyrano[3,4-c]isoquinolin-1-yl)-N-methylbenzo[d]oxazole-6-carboxamide] | 2.3 µM

same assay, conditions: Hepatitis B virus, HepDE19, read-out: DE-19bDNA EC50 (μM)

Structure (SMILES) | EC50
CN(C(=O)c1ccc(Cl)cc1)[C@@H]1COCc2[nH]c(=O)c3cc(F)c(F)cc3c21 [Compound 99, (S)-4-Chloro-N-(8,9-difluoro-6-oxo-1,4,5,6-tetrahydro-2H-pyrano[3,4-c]isoquinolin-1-yl)-N-methylbenzamide] | 0.02 µM
